The source of these data is PubChem BioAssay (NCI).

Test systems include ACHN renal; SK-MEL-5 melanoma; HL-60(TB) leukemia; SK-MEL-2 melanoma; HT29 colon; NCI-H226 lung; EKVX NSCLC; SF-268 CNS; TK-10 renal.
Common to all, as to assay: NCI-60 cell line screen, 48 h

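1) Cells in 96-well plates. 2) Compound, 48 h, 5 concentrations. 3) Linear interpolation between surrounding doses. 4) Unreached endpoint = highest concentration. GI50 marks 50% less growth. At the TGI there is no net growth.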 A value given as a limit tells only on which side of the number the result lay.

Regarding `COC(=O)C1=CCC2c3[nH]c4ccccc4c3CCN2C1` (stereo not drawn), the TGI with ACHN renal, with SK-MEL-5 melanoma, with HL-60(TB) leukemia, in the experiment with SK-MEL-2 melanoma, in the experiment on HT29 colon and with NCI-H226 lung was over 354 µM in each case. The TGI in the experiment with EKVX NSCLC, in the experiment on SF-268 CNS and in the experiment with TK-10 renal was over 354 µM throughout.

Consider `CC(C)C(CCOS(=O)(=O)O)CCC(C)[C@H]1[C@@H](O)C(O)C2[C@]3(O)C[C@@H](O)C4(O)C[C@@H](O)CC[C@]4(C)C3CC[C@@]21C` (stereo partly drawn), for which the TGI in the experiment on ACHN renal, in the experiment with SK-MEL-5 melanoma, with HL-60(TB) leukemia, with SK-MEL-2 melanoma, in the experiment with HT29 colon and in the experiment on NCI-H226 lung was over 100 µM in each case. The TGI in the experiment on EKVX NSCLC, with SF-268 CNS and with TK-10 renal was over 100 µM each time.

Take `CC#CC#C/C=C1\C=CC2(OC=CC2O)O1` (stereo not drawn): the TGI in the experiment on ACHN renal, with SK-MEL-5 melanoma, in the experiment on HL-60(TB) leukemia, in the experiment with SK-MEL-2 melanoma, with HT29 colon and in the experiment on NCI-H226 lung was over 23.3 µM throughout. The TGI in the experiment on EKVX NSCLC is over 16.7 µM; in the experiment with SF-268 CNS, over 23.3 µM; with TK-10 renal it was over 23.3 µM.

In the case of `CC1CC(=O)Nc2ccccc2N1C(=O)C1CC1` (stereo not drawn), the TGI in the experiment on ACHN renal, in the experiment on SK-MEL-5 melanoma, in the experiment with HL-60(TB) leukemia, with SK-MEL-2 melanoma, with HT29 colon and in the experiment with NCI-H226 lung was over 100 µM in each case. Further, the TGI in the experiment on EKVX NSCLC, with SF-268 CNS and in the experiment on TK-10 renal was over 100 µM in each case.

As to `CSC1=Nc2ccccc2N=C(c2ccccc2)C1`, the TGI was over 100 µM with ACHN renal; over 100 µM in the experiment on SK-MEL-5 melanoma; 34.9 µM in the experiment with HL-60(TB) leukemia; over 100 µM in the experiment on SK-MEL-2 melanoma; over 100 µM with HT29 colon; over 100 µM in the experiment on NCI-H226 lung. The TGI with EKVX NSCLC, with SF-268 CNS and in the experiment on TK-10 renal was over 100 µM each time.

In the case of `C/C(CCN(C)C)=N\OC(=O)c1ccccc1`, the TGI with ACHN renal, in the experiment with SK-MEL-5 melanoma, with HL-60(TB) leukemia, in the experiment on SK-MEL-2 melanoma, with HT29 colon and with NCI-H226 lung was over 100 µM each time. Moreover, the TGI with EKVX NSCLC, with SF-268 CNS and in the experiment with TK-10 renal was over 100 µM in each case.

On to `C=C1CN2CCc3c([nH]c4ccccc34)C2CC1CC(=O)N(C)C` (stereo not drawn), for which the TGI in the experiment on ACHN renal, in the experiment with SK-MEL-5 melanoma, with HL-60(TB) leukemia, in the experiment on SK-MEL-2 melanoma, in the experiment on HT29 colon and in the experiment with NCI-H226 lung was over 309 µM throughout. Further, the TGI in the experiment with EKVX NSCLC, in the experiment on SF-268 CNS and in the experiment with TK-10 renal was over 309 µM in each case.

On to `CC1CCc2c(sc3ncnc(N/N=C/c4ccc(Cl)cc4)c23)C1` (stereo not drawn), for which the TGI with ACHN renal is 94.9 µM; in the experiment with SK-MEL-5 melanoma, 37.2 µM; in the experiment with HL-60(TB) leukemia, 43.5 µM; in the experiment with SK-MEL-2 melanoma it was over 100 µM; with HT29 colon it was over 100 µM; with NCI-H226 lung it was 44.4 µM. For the same compound, the TGI in the experiment on EKVX NSCLC was 81.6 µM; in the experiment on SF-268 CNS, over 100 µM; with TK-10 renal, over 100 µM.

`CC(C)[Si](Oc1ccc(CC2N(C(=O)c3ccc([N+](=O)[O-])cc3)C(CCc3ccccc3)CC2(C)C=O)cc1)(C(C)C)C(C)C` (stereo not drawn): the TGI with ACHN renal is over 100 µM; with SK-MEL-2 melanoma, over 100 µM; with NCI-H226 lung, 98.2 µM; with EKVX NSCLC it was over 100 µM; in the experiment with SF-268 CNS, 54.8 µM; in the experiment with TK-10 renal it was over 100 µM.

In the case of `Cn1c(=O)n(C2(C)CSC2)c2ccccc21`, the TGI in the experiment with ACHN renal, with SK-MEL-5 melanoma, in the experiment on HL-60(TB) leukemia, in the experiment on HT29 colon, with NCI-H226 lung and with EKVX NSCLC was over 100 µM in each case. For the same compound, the TGI in the experiment on SF-268 CNS and with TK-10 renal was over 100 µM each time.

With `COc1ccc(-c2cc(=O)c3cc(O)ccc3o2)c(OC)c1OC`, the TGI in the experiment with ACHN renal is 93.6 µM; in the experiment on HL-60(TB) leukemia it was 37.2 µM; with SK-MEL-2 melanoma it was over 100 µM; with HT29 colon it was over 100 µM; with NCI-H226 lung it was over 100 µM; with EKVX NSCLC, over 100 µM. Also, the TGI is 93 µM with SF-268 CNS and over 100 µM with TK-10 renal.

As for `COc1cccc(/C=N/[N-]C(N)=O)c1[O-].[Co+2].[OH3+].c1ccncc1`, the TGI in the experiment on ACHN renal, in the experiment on SK-MEL-5 melanoma, in the experiment on HL-60(TB) leukemia, in the experiment with SK-MEL-2 melanoma, in the experiment on HT29 colon and in the experiment on NCI-H226 lung was over 100 µM each time. Further, the TGI with EKVX NSCLC and in the experiment on SF-268 CNS was over 100 µM in each case. Moreover, in the experiment on HL-60(TB) leukemia, the GI50 was 30.8 µM.
